Measurements from US11944623B2, “Modulators of Kv3 channels to treat pain” (Autifony Therapeutics Limited, priority 2015, dated 2024).

Columns and labels:
hKv3.4 channels = target: T1, hKv3.4 channels (Homo sapiens, UniProt Q03721); test: Kv3.4 Assay 3 (two-electrode voltage clamp, Xenopus oocytes); assay type: cell-based; design: dose or concentration left out as unconfirmed
T1 construct: expressed in transfected cells; host or cells: Xenopus laevis oocytes, microinjected in vitro transcribed mRNA
T1 sequence (Q03721 1-635): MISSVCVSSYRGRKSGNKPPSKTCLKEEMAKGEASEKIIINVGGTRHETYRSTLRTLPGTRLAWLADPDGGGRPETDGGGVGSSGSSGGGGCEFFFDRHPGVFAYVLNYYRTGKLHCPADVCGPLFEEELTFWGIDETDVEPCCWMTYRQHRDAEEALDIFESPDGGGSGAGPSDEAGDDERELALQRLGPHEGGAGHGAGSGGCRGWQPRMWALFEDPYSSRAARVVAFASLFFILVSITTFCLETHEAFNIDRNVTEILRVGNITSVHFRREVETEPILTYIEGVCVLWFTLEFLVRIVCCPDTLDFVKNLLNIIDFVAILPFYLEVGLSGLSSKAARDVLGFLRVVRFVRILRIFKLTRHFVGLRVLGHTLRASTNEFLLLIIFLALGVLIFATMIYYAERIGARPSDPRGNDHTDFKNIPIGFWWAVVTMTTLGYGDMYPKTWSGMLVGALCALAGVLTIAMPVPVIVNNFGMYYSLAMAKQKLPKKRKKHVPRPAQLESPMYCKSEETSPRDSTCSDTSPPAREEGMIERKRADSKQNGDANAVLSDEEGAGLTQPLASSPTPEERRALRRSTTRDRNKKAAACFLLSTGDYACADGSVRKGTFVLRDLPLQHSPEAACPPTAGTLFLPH
Experimental: hKv3.4 channels were heterologously expressed in Xenopus ooctyes following microinjection of in vitro transcribed mRNA (mMessage mMachine kit, Ambion, Austin, TX). Whole-oocyte currents were recorded 1-4 day post-microinjection at room temperature (21-23° C.) under two-electrode voltage-clamp conditions (OC-725C, Warner, Hamden, CT). ND-96 and ND-96 plus the test compound were delivered using a gravity-driven perfusion system. Whole-oocyte currents mediated by hKv3.4 channels were elicited by 400 ms depolarizing steps from −40 to 60 mV in 10 mV increments from a holding potential of −100 mV under in the absence and then presence of test compound. Voltage-conductance curves were constructed from the peak currents evoked at each voltage step, and the data were fitted to a Boltzmann equation. Data acquisition, leak subtraction and initial analyses were performed using pClamp 9.2/10.3 (Molecular Devices, Sunnyvale, CA). Macroscopic currents were low-pass filtered at 0.5-1 kHz and digitized at 1-2 kHz. Leak and capacitive currents were subtracted on line using a p/4 subtraction strategy. Xenopus laevis frogs were handled according IACUC approved protocols and regulations.

[1] = target: T2, human cloned Kv3.4 channels (Homo sapiens, UniProt Q03721); test: Kv3.4 Assay 1 (QPatch HT, HEK293); assay type: cell-based; conditions: 10 µM concentration (N=2)
T2 construct: expressed in transfected cells
T2 sequence (Q03721 1-635): T1 sequence (Q03721 1-635)
Experimental: The effect of compounds on human cloned Kv3.4 channels expressed stably in a HEK293 call line was evaluated at room temperature using the QPatch HT® (Sophion Bioscience A/S, Denmark), an automatic parallel patch clamp system. Compounds were evaluated at 10 μM in three cells. The duration of exposure to each test article concentration was 5 minutes.
In preparation for a recording session, intracellular solution was loaded into the intracellular compartments of the QPlate and cell suspension was pipetted into the extracellular compartments. After establishment of a whole-cell configuration, membrane currents were recorded using up to 48 parallel patch clamp amplifiers in the QPatch HT® system. The current records were sampled at 2000 Hz and low-pass Bessel filtered at 400 Hz.
Valid whole-cell recordings met the following criteria: • 1. Seal resistance (Rseal) ≥200 MΩ. • 2. Leak current 25% channel current.

| effect on Kv3.4 mediated channel currents (hKv3.4 channels) | shift of the voltage-conductance curve for hK3.4 (hKv3.4 channels) | potentiation of the observed Kv3.4 current [1] | SMILES |
| --- | --- | --- | --- |
| No significant effect | did not significantly shift | – | Cc1ccc(Oc2ncc(N3C(=O)NC(C)(C)C3=O)cn2)c2c1OCC21CC1 [Compound 1, 5,5-dimethyl-3-[2-(7-methylspiro[2H-benzofuran-3,1′-cyclopropane]-4-yl)oxypyrimidin-5-yl]imidazolidine-2,4-dione] |
| – | – | did not potentiate | CC[C@@]1(C)NC(=O)N(c2cnc(Oc3ccc(C)c(OC(F)(F)F)c3)nc2)C1=O [Compound 2, (5R)-5-ethyl-5-methyl-3-[2-({4-methyl-3-[(trifluoromethyl)oxy]phenyl}oxy)-5-pyrimidinyl]-2,4-imidazolidinedione] |
